Assay results taken from PubChem BioAssay AID1963444 (Molecular Pharmacology Branch, DTP, NCI, 2024).

Test system: HSSY-II complex spheroid growth, percent test/control
Assay: Anticancer human tumor HSSY-II cell line growth inhibition [Asc];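 further: spheroids exposed to drug for 7 days before reading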
Details: for IC50: curve of first compound; for viability, T/C: stronger effect = lower value; active means viability on the fitted dose curve at most 10% of control; inactive means the rest
Method in brief: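 Complex solid-tumor spheroids incorporating human endothelial and mesenchymal stem cells received single agents or combinations over half-log dilution ranges anchored to clinical Cmax.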

[1] = second compound 0.1 µM, first compound 0.0316 µM
[2] = second compound 0.1 µM, first compound 0.1 µM
[3] = second compound 0.1 µM, first compound 0.316 µM
[4] = second compound 0.1 µM, first compound 1 µM
[5] = second compound 0.316 µM, first compound 0.0316 µM
[6] = second compound 0.316 µM, first compound 0.1 µM
[7] = second compound 0.316 µM, first compound 0.316 µM
[8] = second compound 0.316 µM, first compound 1 µM
[9] = second compound 1 µM, first compound 0.0316 µM
[10] = second compound 1 µM, first compound 0.1 µM
[11] = second compound 1 µM, first compound 0.316 µM
[12] = second compound 1 µM, first compound 1 µM
[13] = second compound 3.16 µM, first compound 0.0316 µM
[14] = second compound 3.16 µM, first compound 0.1 µM
[15] = second compound 3.16 µM, first compound 0.316 µM
[16] = second compound 3.16 µM, first compound 1 µM
[17] = second compound 10 µM, first compound 0.0316 µM
[18] = second compound 10 µM, first compound 0.1 µM
[19] = second compound 10 µM, first compound 0.316 µM
[20] = second compound 10 µM, first compound 1 µM
[21] = second compound 0.03 µM, first compound 0.0316 µM
[22] = second compound 0.03 µM, first compound 0.1 µM
[23] = second compound 0.03 µM, first compound 0.316 µM
[24] = second compound 0.03 µM, first compound 1 µM
[25] = second compound 0.0949 µM, first compound 0.0316 µM
[26] = second compound 0.0949 µM, first compound 0.1 µM
[27] = second compound 0.0949 µM, first compound 0.316 µM
[28] = second compound 0.0949 µM, first compound 1 µM
[29] = second compound 0.3 µM, first compound 0.0316 µM
[30] = second compound 0.3 µM, first compound 0.1 µM
[31] = second compound 0.3 µM, first compound 0.316 µM
[32] = second compound 0.3 µM, first compound 1 µM
[33] = second compound 0.949 µM, first compound 0.0316 µM
[34] = second compound 0.949 µM, first compound 0.1 µM
[35] = second compound 0.949 µM, first compound 0.316 µM
[36] = second compound 0.949 µM, first compound 1 µM
[37] = second compound 3 µM, first compound 0.0316 µM
[38] = second compound 3 µM, first compound 0.1 µM
[39] = second compound 3 µM, first compound 0.316 µM
[40] = second compound 3 µM, first compound 1 µM

COc1c(OCCCN2CCOCC2)ccc2c3n(c(=NC(=O)c4cnc(N)nc4)nc12)CCN3 + Cc1c(S(C)(=O)=O)c(-c2cc(F)cc(N3CCN(c4ccc(NS(=O)(=O)c5ccc(NC(CCN6CCC(C(=O)OCCCP(=O)(O)O)CC6)CSc6ccccc6)c(S(=O)(=O)C(F)(F)F)c5)cc4)CC3)c2)c(-c2ccc(Cl)cc2)n1C(C)C
26.4 nM: IC50 (second compound 10 µM)
25.4 nM: IC50 (second compound 1 µM)
active: viability, T/C [12] 7.86% | viability, T/C [16] 6.36% | viability, T/C [20] 3.47%
inactive: viability, T/C (second compound 0.1 µM, first compound 0.00316 µM) 86.7% | viability, T/C (second compound 0.1 µM, first compound 0.01 µM) 72.9% | viability, T/C [1] 50.5% | viability, T/C [2] 35.9% | viability, T/C [3] 20.9% | viability, T/C [4] 10.2% | viability, T/C (second compound 0.316 µM, first compound 0.00316 µM) 86.4% | viability, T/C (second compound 0.316 µM, first compound 0.01 µM) 74.1% | viability, T/C [5] 48.5% | viability, T/C [6] 28.6% | viability, T/C [7] 19.6% | viability, T/C [8] 8.57% | viability, T/C (second compound 1 µM, first compound 0.00316 µM) 90.1% | viability, T/C (second compound 1 µM, first compound 0.01 µM) 67% | viability, T/C [9] 45% | viability, T/C [10] 30.4% | viability, T/C [11] 17.7% | viability, T/C (second compound 3.16 µM, first compound 0.00316 µM) 82.1% | viability, T/C (second compound 3.16 µM, first compound 0.01 µM) 67.9% | viability, T/C [13] 42.4% | viability, T/C [14] 34.5% | viability, T/C [15] 16.2% | viability, T/C (second compound 10 µM, first compound 0.00316 µM) 77.6% | viability, T/C (second compound 10 µM, first compound 0.01 µM) 68.9% | viability, T/C [17] 42.9% | viability, T/C [18] 30.7% | viability, T/C [19] 16.4%
37.6 nM: IC50 (second compound 0.1 µM)
26.3 nM: IC50 (second compound 3.16 µM)
31.7 nM: IC50 (second compound 0.316 µM)

CNC(C)C(=O)NC1CN(S(=O)(=O)c2cccc(S(=O)(=O)N3CCC4CCC(C(=O)NC(c5ccccc5)c5ccccc5)N4C(=O)C(NC(=O)C(C)NC)C3)c2)CCC2CCC(C(=O)NC(c3ccccc3)c3ccccc3)N2C1=O (stereo not given) + CCN1C(C(=O)NC23CCC(C(=O)O)(CC2)CC3)C(c2cccc(Cl)c2F)C2(C(=O)Nc3cc(Cl)ccc32)C12CCCCC2
< 3.16 nM: IC50 (second compound 0.3 µM) | IC50 (second compound 0.949 µM) | IC50 (second compound 3 µM)
inactive: viability, T/C (second compound 0.03 µM, first compound 0.00316 µM) 76.3% | viability, T/C (second compound 0.03 µM, first compound 0.01 µM) 81.6% | viability, T/C [21] 65.6% | viability, T/C [22] 69.1% | viability, T/C [23] 66.8% | viability, T/C [24] 63.1% | viability, T/C (second compound 0.0949 µM, first compound 0.00316 µM) 49.2% | viability, T/C (second compound 0.0949 µM, first compound 0.01 µM) 48.4% | viability, T/C [25] 36.8% | viability, T/C [26] 39.5% | viability, T/C [27] 39.1% | viability, T/C [28] 37.5% | viability, T/C (second compound 0.3 µM, first compound 0.00316 µM) 13.5% | viability, T/C (second compound 0.3 µM, first compound 0.01 µM) 13.5% | viability, T/C [29] 13.3% | viability, T/C [30] 11% | viability, T/C [31] 14.3% | viability, T/C [32] 11.2%
> 1000 nM: IC50 (second compound 0.03 µM)
3.28 nM: IC50 (second compound 0.0949 µM)
active: viability, T/C (second compound 0.949 µM, first compound 0.00316 µM) 2.72% | viability, T/C (second compound 0.949 µM, first compound 0.01 µM) 1.74% | viability, T/C [33] 1.39% | viability, T/C [34] 1.14% | viability, T/C [35] 0.75% | viability, T/C [36] 1.15% | viability, T/C (second compound 3 µM, first compound 0.00316 µM) 0.64% | viability, T/C (second compound 3 µM, first compound 0.01 µM) 0.51% | viability, T/C [37] 0.48% | viability, T/C [38] 0.47% | viability, T/C [39] 0.62% | viability, T/C [40] 0.46%

C#Cc1c(F)ccc2cc(O)cc(-c3ncc4c(N5CC6CCC(C5)N6)nc(OCC56CCCN5CC(F)C6)nc4c3F)c12 (stereo not given) + Cc1c(S(C)(=O)=O)c(-c2cc(F)cc(N3CCN(c4ccc(NS(=O)(=O)c5ccc(NC(CCN6CCC(C(=O)OCCCP(=O)(O)O)CC6)CSc6ccccc6)c(S(=O)(=O)C(F)(F)F)c5)cc4)CC3)c2)c(-c2ccc(Cl)cc2)n1C(C)C
8630 nM: IC50 (second compound 0.1 µM)
5950 nM: IC50 (second compound 10 µM)
5880 nM: IC50 (second compound 1 µM)
5430 nM: IC50 (second compound 3.16 µM)
6030 nM: IC50 (second compound 0.316 µM)
active: viability, T/C (second compound 1 µM, first compound 10 µM) 9.87%
inactive: viability, T/C [1] 103% | viability, T/C [2] 99.5% | viability, T/C [3] 99.6% | viability, T/C [4] 102% | viability, T/C (second compound 0.1 µM, first compound 3.16 µM) 87.8% | viability, T/C (second compound 0.1 µM, first compound 10 µM) 44% | viability, T/C [5] 108% | viability, T/C [6] 117% | viability, T/C [7] 110% | viability, T/C [8] 105% | viability, T/C (second compound 0.316 µM, first compound 3.16 µM) 82% | viability, T/C (second compound 0.316 µM, first compound 10 µM) 25% | viability, T/C [9] 102% | viability, T/C [10] 105% | viability, T/C [11] 109% | viability, T/C [12] 105% | viability, T/C (second compound 1 µM, first compound 3.16 µM) 96.8% | viability, T/C [13] 108% | viability, T/C [14] 115% | viability, T/C [15] 94.3% | viability, T/C [16] 101% | viability, T/C (second compound 3.16 µM, first compound 3.16 µM) 83.7% | viability, T/C (second compound 3.16 µM, first compound 10 µM) 13.2% | viability, T/C [17] 105% | viability, T/C [18] 95.2% | viability, T/C [19] 92.6% | viability, T/C [20] 97.8% | viability, T/C (second compound 10 µM, first compound 3.16 µM) 74.9% | viability, T/C (second compound 10 µM, first compound 10 µM) 29.4%

C=C(F)C(=O)N1CCN(c2nc(OCC3CCCN3C)nc3c2CCN(c2cccc4cccc(Cl)c24)C3)CC1CC#N (stereo not given) + CCN1C(C(=O)NC23CCC(C(=O)O)(CC2)CC3)C(c2cccc(Cl)c2F)C2(C(=O)Nc3cc(Cl)ccc32)C12CCCCC2
1090 nM: IC50 (second compound 0.03 µM)
active: viability, T/C (second compound 0.03 µM, first compound 3.16 µM) 1.72% | viability, T/C (second compound 0.03 µM, first compound 10 µM) 0.13% | viability, T/C (second compound 0.0949 µM, first compound 3.16 µM) 0.75% | viability, T/C (second compound 0.0949 µM, first compound 10 µM) 0.1% | viability, T/C (second compound 0.3 µM, first compound 3.16 µM) 0.42% | viability, T/C (second compound 0.3 µM, first compound 10 µM) 0.12% | viability, T/C [33] 8.79% | viability, T/C [34] 7.11% | viability, T/C [35] 6.61% | viability, T/C [36] 3.73% | viability, T/C (second compound 0.949 µM, first compound 3.16 µM) 0.07% | viability, T/C (second compound 0.949 µM, first compound 10 µM) 0.12% | viability, T/C [37] 3.47% | viability, T/C [38] 2.72% | viability, T/C [39] 2.77% | viability, T/C [40] 1.35% | viability, T/C (second compound 3 µM, first compound 3.16 µM) 0.15% | viability, T/C (second compound 3 µM, first compound 10 µM) 0.21%
< 31.6 nM: IC50 (second compound 0.3 µM) | IC50 (second compound 0.949 µM) | IC50 (second compound 3 µM)
340 nM: IC50 (second compound 0.0949 µM)
inactive: viability, T/C [21] 93.7% | viability, T/C [22] 82.3% | viability, T/C [23] 77.1% | viability, T/C [24] 55.2% | viability, T/C [25] 64.5% | viability, T/C [26] 66.6% | viability, T/C [27] 49.1% | viability, T/C [28] 26.5% | viability, T/C [29] 26.3% | viability, T/C [30] 23.1% | viability, T/C [31] 19.9% | viability, T/C [32] 13.4%
